Measurements: paper PMC7473988 (Journal of Experimental Pharmacology, 2020)
“And” between values parts separate entries of the source, which are not always exact repeats. Equal values may be shown once. Where a name gives a salt, the structure may show the parent alone.

Assays:
[1] = molecular target: T1, SERT (Homo sapiens, UniProt P31645); conditions: cited from earlier work
[2] = tested on: neuronal receptors; conditions: binding affinity study; cited from earlier work
[3] = tested on: 5-HT in rat and mouse PFC; conditions: cited from earlier work
[4] = molecular target: DA receptor D2S (Homo sapiens, UniProt P14416); test: Cerep Bioprint radioligand binding assay: D2S; conditions: read-out: percent inhibition of the binding of a radiolabeled ligand
Sequence of DA receptor D2S (P14416 1-414 isoform P14416-2): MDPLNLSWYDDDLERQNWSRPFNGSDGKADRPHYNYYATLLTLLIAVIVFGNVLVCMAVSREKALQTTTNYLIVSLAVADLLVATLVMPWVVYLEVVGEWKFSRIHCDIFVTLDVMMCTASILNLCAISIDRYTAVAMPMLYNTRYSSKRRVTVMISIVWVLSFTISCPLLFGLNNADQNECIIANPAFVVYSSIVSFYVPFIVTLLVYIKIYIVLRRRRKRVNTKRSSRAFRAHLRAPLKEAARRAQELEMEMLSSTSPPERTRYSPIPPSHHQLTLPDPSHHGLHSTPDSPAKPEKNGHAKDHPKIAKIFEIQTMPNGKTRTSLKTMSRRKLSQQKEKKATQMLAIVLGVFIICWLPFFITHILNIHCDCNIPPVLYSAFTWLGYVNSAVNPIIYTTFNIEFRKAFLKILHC

[5] = molecular target: ADRα2A (Homo sapiens, UniProt P08913)
[6] = molecular target: His receptor H2 (Homo sapiens, UniProt P25021); test: Cerep Bioprint radioligand binding assay: H2; conditions: read-out: percent inhibition of the binding of a radiolabeled ligand
[7] = molecular target: 5-HT6 (Homo sapiens, UniProt P50406)
[8] = molecular target: T2, 5-HT7 (Homo sapiens, UniProt P34969); test: cell-based; conditions: read-out: antagonistic activity at 5-HT7, inhibition
Target sequence in this assay (P34969 whole entry): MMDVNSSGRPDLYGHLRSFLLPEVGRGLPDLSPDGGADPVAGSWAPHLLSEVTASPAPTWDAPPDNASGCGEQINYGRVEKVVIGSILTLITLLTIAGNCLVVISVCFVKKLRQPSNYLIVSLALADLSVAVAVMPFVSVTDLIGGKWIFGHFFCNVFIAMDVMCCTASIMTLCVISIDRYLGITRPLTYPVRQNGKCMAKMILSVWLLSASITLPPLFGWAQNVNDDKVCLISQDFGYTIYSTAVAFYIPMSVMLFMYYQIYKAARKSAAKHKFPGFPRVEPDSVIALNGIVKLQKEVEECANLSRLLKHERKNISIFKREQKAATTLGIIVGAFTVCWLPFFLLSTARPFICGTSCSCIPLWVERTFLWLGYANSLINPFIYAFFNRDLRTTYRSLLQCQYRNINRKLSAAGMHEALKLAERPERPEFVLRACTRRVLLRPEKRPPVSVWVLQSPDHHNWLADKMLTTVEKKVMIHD

[9] = molecular target: histaminic receptor H1 (Homo sapiens, UniProt P35367)
[10] = molecular target: ADRα2C (Homo sapiens, UniProt P18825)
[11] = molecular target: NET (Rattus norvegicus, UniProt Q63380); test: biochemical; conditions: IC50, inhibition of [3H]-NE uptake (NET), rat hypothalamic synaptosomes
Sequence of NET (Rattus norvegicus, UniProt Q63380) (Q63380 1-617): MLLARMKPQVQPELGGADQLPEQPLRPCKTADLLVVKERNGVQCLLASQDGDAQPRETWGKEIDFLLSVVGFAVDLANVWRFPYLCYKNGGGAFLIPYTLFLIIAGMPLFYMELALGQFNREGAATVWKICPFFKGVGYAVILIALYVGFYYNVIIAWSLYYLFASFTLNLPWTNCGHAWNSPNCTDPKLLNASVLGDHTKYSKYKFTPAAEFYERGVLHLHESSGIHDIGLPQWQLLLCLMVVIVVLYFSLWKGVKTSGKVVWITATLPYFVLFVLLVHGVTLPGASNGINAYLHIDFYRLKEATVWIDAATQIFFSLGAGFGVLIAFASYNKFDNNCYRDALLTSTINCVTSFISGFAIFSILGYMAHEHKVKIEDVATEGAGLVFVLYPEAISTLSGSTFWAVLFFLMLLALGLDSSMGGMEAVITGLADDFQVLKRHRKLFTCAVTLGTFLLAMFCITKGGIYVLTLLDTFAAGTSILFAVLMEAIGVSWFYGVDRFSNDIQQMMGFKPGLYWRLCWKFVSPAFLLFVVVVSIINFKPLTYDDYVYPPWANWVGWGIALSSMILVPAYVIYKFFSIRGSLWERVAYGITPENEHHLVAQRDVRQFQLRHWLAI

[12] = molecular target: ADRβ1 (Homo sapiens, UniProt P08588)
[13] = molecular target: dopaminergic receptor D1 (Homo sapiens, UniProt P21728)
Sequence of dopaminergic receptor D1 (P21728 whole entry): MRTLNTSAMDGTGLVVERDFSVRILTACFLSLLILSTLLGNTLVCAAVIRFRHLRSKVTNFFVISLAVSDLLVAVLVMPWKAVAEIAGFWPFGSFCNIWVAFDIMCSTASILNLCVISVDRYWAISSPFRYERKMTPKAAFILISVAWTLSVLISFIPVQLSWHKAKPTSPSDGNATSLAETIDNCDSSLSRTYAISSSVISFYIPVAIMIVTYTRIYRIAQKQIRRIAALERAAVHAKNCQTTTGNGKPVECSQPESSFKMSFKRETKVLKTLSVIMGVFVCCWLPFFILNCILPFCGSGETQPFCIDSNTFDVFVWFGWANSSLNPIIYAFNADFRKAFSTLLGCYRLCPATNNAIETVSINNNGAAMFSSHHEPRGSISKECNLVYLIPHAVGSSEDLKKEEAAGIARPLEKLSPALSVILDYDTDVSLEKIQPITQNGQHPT

[14] = molecular target: dopaminergic receptor D2S (Homo sapiens, UniProt P14416)
Sequence of dopaminergic receptor D2S (P14416 1-414 isoform P14416-2): as the sequence (P14416 1-414 isoform P14416-2) above

[15] = molecular target: adrenergic alpha1B (ADRα1B) receptor (Homo sapiens, UniProt P35368); test: Cerep Bioprint radioligand binding assay: ADRα1B; conditions: read-out: percent inhibition of the binding of a radiolabeled ligand
[16] = tested on: 5-HT2B; conditions: at all concentrations, clinical doses of 100, 200, 400, and 600 mg/day
[17] = molecular target: ADRα2B (Homo sapiens, UniProt P18089)
[18] = molecular target: ADRα1A (Homo sapiens, UniProt P35348)
[19] = tested on: GABA transporter (GAT); test: Cerep Bioprint radioligand binding assay: GAT; conditions: viloxazine 10 µM
[20] = molecular target: muscarinic cholinergic receptor M3 (Homo sapiens, UniProt P20309); test: Cerep Bioprint radioligand binding assay: M3; conditions: read-out: percent inhibition of the binding of a radiolabeled ligand
[21] = molecular target: T3, 5-HT2A (Homo sapiens, UniProt P28223); conditions: concentrations up to 300 µM
T3 sequence (P28223 whole entry, species assumed): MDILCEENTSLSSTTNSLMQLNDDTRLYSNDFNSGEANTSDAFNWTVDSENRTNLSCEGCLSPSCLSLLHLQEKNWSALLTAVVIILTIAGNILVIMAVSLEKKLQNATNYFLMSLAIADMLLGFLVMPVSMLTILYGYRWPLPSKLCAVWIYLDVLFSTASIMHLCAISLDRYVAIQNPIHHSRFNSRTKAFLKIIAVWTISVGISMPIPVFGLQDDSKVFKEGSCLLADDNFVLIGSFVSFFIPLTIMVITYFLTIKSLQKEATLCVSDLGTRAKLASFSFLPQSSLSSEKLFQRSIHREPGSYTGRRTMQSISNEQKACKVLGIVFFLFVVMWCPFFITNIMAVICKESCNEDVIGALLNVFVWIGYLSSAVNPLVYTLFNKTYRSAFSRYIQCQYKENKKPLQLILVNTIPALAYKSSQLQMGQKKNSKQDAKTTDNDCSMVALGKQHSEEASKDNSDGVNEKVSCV

[22] = molecular target: adrenergic alpha1A (ADRα1A) receptor (Homo sapiens, UniProt P35348); test: Cerep Bioprint radioligand binding assay: ADRα1A; conditions: read-out: percent inhibition of the binding of a radiolabeled ligand
[23] = molecular target: muscarinic cholinergic receptor M1 (Homo sapiens, UniProt P11229); test: Cerep Bioprint radioligand binding assay: M1; conditions: read-out: percent inhibition of the binding of a radiolabeled ligand
[24] = molecular target: T4, 5-HT2C (Homo sapiens, UniProt P28335); test: biochemical; conditions: read-out: percent inhibition of the binding of a radiolabeled ligand
T4 sequence (P28335 33-458): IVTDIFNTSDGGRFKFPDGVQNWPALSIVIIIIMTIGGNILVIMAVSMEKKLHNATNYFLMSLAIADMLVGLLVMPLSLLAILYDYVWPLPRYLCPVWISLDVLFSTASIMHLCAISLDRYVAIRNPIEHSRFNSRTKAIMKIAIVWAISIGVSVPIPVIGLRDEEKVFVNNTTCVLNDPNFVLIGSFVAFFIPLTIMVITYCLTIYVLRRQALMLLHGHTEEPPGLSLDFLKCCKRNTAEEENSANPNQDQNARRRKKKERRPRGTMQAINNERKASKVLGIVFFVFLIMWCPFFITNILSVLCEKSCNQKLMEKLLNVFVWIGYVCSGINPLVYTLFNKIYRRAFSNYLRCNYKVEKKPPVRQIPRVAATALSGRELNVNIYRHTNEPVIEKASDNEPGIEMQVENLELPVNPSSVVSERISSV

[25] = molecular target: 5-HT1B (Homo sapiens, UniProt P28222)
[26] = molecular target: muscarinic cholinergic receptor M4 (Homo sapiens, UniProt P08173); test: Cerep Bioprint radioligand binding assay: M4; conditions: read-out: percent inhibition of the binding of a radiolabeled ligand
[27] = molecular target: choline transporter (CHT-1) (Homo sapiens, UniProt Q9GZV3); test: Cerep Bioprint radioligand binding assay: CHT-1; conditions: viloxazine 10 µM
[28] = tested on: extracellular neurotransmitter levels in the PFC, Acb, and Amg; conditions: viloxazine 50 mg/kg IP, compared to baseline or vehicle
[29] = molecular target: His receptor H1 (Homo sapiens, UniProt P35367); test: Cerep Bioprint radioligand binding assay: H1; conditions: read-out: percent inhibition of the binding of a radiolabeled ligand
[30] = molecular target: cholinergic muscarinic receptor M1 (Homo sapiens, UniProt P11229)
[31] = molecular target: T5, 5-HT2B (Homo sapiens, UniProt P41595); test: Cerep Bioprint radioligand binding assay: 5-HT2B
T5 sequence (P41595 whole entry): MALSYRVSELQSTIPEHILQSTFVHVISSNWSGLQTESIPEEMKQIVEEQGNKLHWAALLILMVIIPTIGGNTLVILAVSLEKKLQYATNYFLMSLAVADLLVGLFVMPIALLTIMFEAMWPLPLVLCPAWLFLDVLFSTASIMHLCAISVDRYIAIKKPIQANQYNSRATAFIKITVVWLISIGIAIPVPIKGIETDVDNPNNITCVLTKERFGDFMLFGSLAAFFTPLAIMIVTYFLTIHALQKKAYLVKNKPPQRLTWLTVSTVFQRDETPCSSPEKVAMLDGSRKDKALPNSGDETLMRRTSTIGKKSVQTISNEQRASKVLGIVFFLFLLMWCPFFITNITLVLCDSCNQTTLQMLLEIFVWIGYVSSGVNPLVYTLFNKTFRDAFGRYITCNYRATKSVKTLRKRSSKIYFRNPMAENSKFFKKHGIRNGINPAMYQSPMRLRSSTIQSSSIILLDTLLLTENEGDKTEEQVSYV

[32] = molecular target: ADRβ2 (Homo sapiens, UniProt P07550); test: cell-based
[33] = tested on: 5-HT1B; conditions: viloxazine 10 µM
[34] = molecular target: T4, 5-HT2C; test: cell-based; conditions: CHO, read-out: Emax, agonistic activity towards 5-HT2C
[35] = molecular target: T1, SERT; test: Cerep Bioprint radioligand binding assay: SERT; conditions: viloxazine 10 µM
[36] = molecular target: DA receptor D3 (Homo sapiens, UniProt P35462); test: Cerep Bioprint radioligand binding assay: D3; conditions: read-out: percent inhibition of the binding of a radiolabeled ligand
Sequence of DA receptor D3 (P35462 whole entry): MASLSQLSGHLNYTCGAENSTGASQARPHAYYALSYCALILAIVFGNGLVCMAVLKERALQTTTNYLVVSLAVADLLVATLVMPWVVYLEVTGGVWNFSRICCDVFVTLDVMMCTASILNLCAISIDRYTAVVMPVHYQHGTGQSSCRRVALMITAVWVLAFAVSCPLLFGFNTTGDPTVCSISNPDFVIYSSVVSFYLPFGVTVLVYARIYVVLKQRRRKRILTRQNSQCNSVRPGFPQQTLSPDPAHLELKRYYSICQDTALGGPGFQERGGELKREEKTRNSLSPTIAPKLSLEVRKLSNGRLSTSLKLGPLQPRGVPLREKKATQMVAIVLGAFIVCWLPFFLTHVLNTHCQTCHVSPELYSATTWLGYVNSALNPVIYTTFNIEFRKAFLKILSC

[37] = molecular target: ADRα1B (Homo sapiens, UniProt P35368); test: cell-based
[38] = molecular target: DA receptor D1 (Homo sapiens, UniProt P21728); test: Cerep Bioprint radioligand binding assay: D1; conditions: read-out: percent inhibition of the binding of a radiolabeled ligand
Sequence of DA receptor D1 (P21728 whole entry): as the sequence (P21728 whole entry) above

[39] = molecular target: dopaminergic receptor D3 (Homo sapiens, UniProt P35462)
Sequence of dopaminergic receptor D3 (P35462 whole entry): as the sequence (P35462 whole entry) above

[40] = molecular target: monoamine oxidase A (MAO-A) (Rattus norvegicus, UniProt P21396); test: Cerep Bioprint panel assay: MAO-A; conditions: read-out: percent inhibition (activity towards MAO-A)
[41] = molecular target: cholinergic muscarinic receptor M3 (Homo sapiens, UniProt P20309)
Sequence of cholinergic muscarinic receptor M3 (P20309 whole entry): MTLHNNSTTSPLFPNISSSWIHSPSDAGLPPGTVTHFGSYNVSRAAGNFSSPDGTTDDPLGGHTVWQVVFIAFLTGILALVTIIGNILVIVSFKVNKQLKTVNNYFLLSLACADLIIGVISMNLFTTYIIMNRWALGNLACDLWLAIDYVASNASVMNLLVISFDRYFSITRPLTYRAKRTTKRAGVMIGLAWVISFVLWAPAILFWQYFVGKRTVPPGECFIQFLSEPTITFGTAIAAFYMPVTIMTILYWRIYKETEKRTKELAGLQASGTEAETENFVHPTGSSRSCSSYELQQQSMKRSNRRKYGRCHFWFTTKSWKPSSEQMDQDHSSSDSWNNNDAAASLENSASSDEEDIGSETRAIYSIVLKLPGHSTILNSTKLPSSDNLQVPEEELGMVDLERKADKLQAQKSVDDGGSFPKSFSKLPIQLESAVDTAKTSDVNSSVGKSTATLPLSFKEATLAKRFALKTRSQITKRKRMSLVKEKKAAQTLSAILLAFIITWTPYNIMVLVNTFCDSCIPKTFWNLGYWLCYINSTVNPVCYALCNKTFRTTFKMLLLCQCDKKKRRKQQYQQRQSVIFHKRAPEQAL

[42] = molecular target: DAT (Homo sapiens, UniProt Q01959); test: Cerep Bioprint radioligand binding assay: DAT; conditions: read-out: percent inhibition (activity towards DAT)
[43] = molecular target: T2, 5-HT7; test: Cerep Bioprint radioligand binding assay: 5-HT7; conditions: read-out: percent inhibition of the binding of a radiolabeled ligand
[44] = molecular target: muscarinic cholinergic receptor M2 (Homo sapiens, UniProt P08172); test: Cerep Bioprint radioligand binding assay: M2; conditions: read-out: percent inhibition of the binding of a radiolabeled ligand
[45] = tested on: 5-HT2C; conditions: at all concentrations except at 100 mg/day dose
[46] = molecular target: NET (Homo sapiens, UniProt P23975); test: Cerep Bioprint radioligand binding assay: NET; conditions: read-out: percent inhibition of the binding of a radiolabeled ligand
[47] = molecular target: T3, 5-HT2A; test: cell-based
[48] = molecular target: T5, 5-HT2B; test: cell-based
[49] = molecular target: 5-HT1D (Rattus norvegicus, UniProt P28565)
[50] = molecular target: cholinergic muscarinic receptor M4 (Homo sapiens, UniProt P08173)
Sequence of cholinergic muscarinic receptor M4 (P08173 whole entry): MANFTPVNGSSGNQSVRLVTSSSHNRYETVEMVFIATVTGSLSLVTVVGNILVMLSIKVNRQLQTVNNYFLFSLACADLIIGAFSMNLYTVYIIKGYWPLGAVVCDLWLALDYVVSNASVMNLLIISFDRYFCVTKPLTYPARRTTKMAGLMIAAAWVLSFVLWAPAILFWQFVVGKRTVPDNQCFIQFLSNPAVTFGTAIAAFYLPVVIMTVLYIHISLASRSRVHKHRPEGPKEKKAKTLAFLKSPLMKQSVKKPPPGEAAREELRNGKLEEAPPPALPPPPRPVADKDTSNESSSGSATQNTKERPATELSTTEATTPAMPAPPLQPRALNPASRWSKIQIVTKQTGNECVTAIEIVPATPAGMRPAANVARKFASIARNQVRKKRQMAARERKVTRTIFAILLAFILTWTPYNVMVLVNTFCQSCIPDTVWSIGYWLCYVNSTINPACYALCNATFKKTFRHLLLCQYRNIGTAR

[51] = molecular target: 5-HT1A (Homo sapiens, UniProt P08908)
[52] = molecular target: T2, 5-HT7; conditions: concentrations up to 100 µM
Target sequence in this assay (P34969 whole entry): as the sequence (P34969 whole entry) above

[53] = tested on: DA in the striatum; conditions: freely moving spontaneously hypertensive rats; cited from earlier work

CNCC[C@@H](Oc1ccccc1C)c1ccccc1 [Atomoxetine, atomoxetine]
SERT occupancy [1]: > 85%
affinity for neuronal receptors [2]: does not possess appreciable affinity
effect on 5-HT in rat and mouse PFC by microdialysis [3]: not found to functionally increase 5-HT

CCOc1ccccc1OCC1CNCCO1 (centres unmarked) [Viloxazine, Viloxazine hydrochloride]
inhibition at 10 µM [4]: < 25%
agonistic or antagonistic activity towards ADRα2A [5]: either very weak (IC50 > 150 µM) or no significant agonistic or antagonistic activity
inhibition at 10 µM [6]: < 25%
agonistic or antagonistic activity towards 5-HT6 [7]: did not show any significant agonistic or antagonistic activity
inhibition at 100 µM [8]: 52%
antagonistic activity towards H1 [9]: either very weak (IC50 > 150 µM) or no antagonistic activity
agonistic activity towards H1 ([9]; concentrations up to 300 µM): no significant agonistic activity
agonistic or antagonistic activity towards ADRα2C [10]: either very weak (IC50 > 150 µM) or no significant agonistic or antagonistic activity
IC50 [11]: 0.26 µM and ~0.3 µM
agonistic or antagonistic activity towards ADRβ1 [12]: either very weak (IC50 > 150 µM) or no significant agonistic or antagonistic activity
antagonistic activity towards D1 [13]: either very weak (IC50 > 150 µM) or no antagonistic activity
agonistic activity towards D1 ([13]; concentrations up to 300 µM): no significant agonistic activity
antagonistic activity towards D2S [14]: either very weak (IC50 > 150 µM) or no antagonistic activity
agonistic activity towards D2S ([14]; concentrations up to 300 µM): no significant agonistic activity
inhibition at 10 µM [15]: > 50%
calculated 5-HT2B occupancy at clinical doses [16]: higher than 80%
agonistic or antagonistic activity towards ADRα2B [17]: either very weak (IC50 > 150 µM) or no significant agonistic or antagonistic activity
agonistic or antagonistic activity towards ADRα1A [18]: either very weak (IC50 > 150 µM) or no significant agonistic or antagonistic activity
binding to the GABA transporter (GAT) [19]: negligible binding
inhibition at 10 µM [20]: < 25%
agonistic effect at 5-HT2A [21]: no agonistic effect
inhibition at 10 µM [22]: > 50%
inhibition at 10 µM [23]: < 25%
inhibition at 10 µM [24]: > 50%
agonistic or antagonistic activity towards 5-HT1B [25]: did not show any significant agonistic or antagonistic activity
inhibition at 10 µM [26]: < 25%
binding to the choline transporter (CHT-1) [27]: negligible binding
change in extracellular level of ACh [28]: No significant changes
change in extracellular level of GABA [28]: No significant changes
change in extracellular level of Glu [28]: No significant changes
change in extracellular level of His [28]: No significant changes
inhibition at 10 µM [29]: < 25%
antagonistic activity towards M1 [30]: either very weak (IC50 > 150 µM) or no antagonistic activity
agonistic activity towards M1 ([30]; concentrations up to 300 µM): no significant agonistic activity
Ki ([31]; Ki for 5-HT2B, constant of binding used for receptor occupancy): 6.4 µM
inhibition at 10 µM ([31]; read-out: percent inhibition of the binding of a radiolabeled ligand): > 50%
IC50 [32]: 68 µM
percent inhibition of the binding of a radiolabeled ligand [33]: > 50%
Emax [34]: 78.6%
binding to SERT [35]: negligible binding
inhibition at 10 µM [36]: < 25%
IC50 [37]: 93 µM
inhibition at 10 µM [38]: < 25%
antagonistic activity towards D3 [39]: either very weak (IC50 > 150 µM) or no antagonistic activity
agonistic activity towards D3 ([39]; concentrations up to 300 µM): no significant agonistic activity
inhibition at 10 µM [40]: ~10%
antagonistic activity towards M3 [41]: either very weak (IC50 > 150 µM) or no antagonistic activity
agonistic activity towards M3 ([41]; concentrations up to 300 µM): no significant agonistic activity
inhibition at 10 µM [42]: ~10%
inhibition at 10 µM [43]: > 50%
inhibition at 10 µM [44]: < 25%
calculated 5-HT2C occupancy at clinical doses [45]: higher than 80%
inhibition at 10 µM [46]: > 50%
IC50 [47]: > 300 µM
IC50 [48]: 27 µM
agonistic or antagonistic activity towards 5-HT1D [49]: did not show any significant agonistic or antagonistic activity
antagonistic activity towards M4 [50]: either very weak (IC50 > 150 µM) or no antagonistic activity
agonistic activity towards M4 ([50]; concentrations up to 300 µM): no significant agonistic activity
agonistic or antagonistic activity towards 5-HT1A [51]: did not show any significant agonistic or antagonistic activity
agonistic activity at 5-HT7 [52]: no agonistic activity

C[C@H](N)Cc1ccccc1 [d-amphetamine]
increase of DA from the baseline level in the striatum [53]: 700%

C[C@@H](N)Cc1ccccc1 [l-amphetamine]
increase of DA from the baseline level in the striatum [53]: 1,200%
